Data on 11 compounds can be found in PubChem BioAssay (NCI).

Among the test systems are UACC-257 melanoma; MDA-N; U251 CNS; NCI/ADR-RES ovarian; HS 578T breast; HL-60(TB) leukemia; TK-10 renal; RPMI-8226 leukemia; IGROV1 ovarian; MOLT-4 leukemia; MDA-MB-435; LOX IMVI melanoma; OVCAR-4 ovarian; SK-MEL-5 melanoma; SNB-19 CNS; A549 NSCLC; A498 renal; NCI-H460 lung; MALME-3M melanoma; SF-539 CNS.
What all share (test): NCI tumour cell line growth inhibition, 48 h

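96-well plates; 48 h exposure; 5 concentrations. Endpoints by linear interpolation between flanking doses. Not reached: highest tested concentration assigned. TGI denotes the concentration required for complete inhibition of growth.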

As for `O=C(NCCCCCCCN1CCCCCCC1)C(C1CCCCC1)C1CCCCC1`, the TGI was found to be 4.79 µM with UACC-257 melanoma; 21.8 µM with MDA-N; 20.8 µM with U251 CNS; 25.1 µM in the assay on NCI/ADR-RES ovarian; 51.5 µM in the assay with HS 578T breast; 22.2 µM in the assay on HL-60(TB) leukemia. Also, the TGI in the assay with TK-10 renal came out at 25.6 µM; with RPMI-8226 leukemia, 6.71 µM; with IGROV1 ovarian, 27.3 µM; with MOLT-4 leukemia, 20.4 µM; with MDA-MB-435, 22.2 µM; with LOX IMVI melanoma, 26.2 µM. The TGI in the assay on OVCAR-4 ovarian came to 25.4 µM; with SK-MEL-5 melanoma, 5.51 µM; with SNB-19 CNS, 27.9 µM; with A549 NSCLC, 25.7 µM; with A498 renal it was 15.5 µM; with NCI-H460 lung it was 23.6 µM. In addition, the values for the TGI in the assay with MALME-3M melanoma and in the assay with SF-539 CNS were 8.53 µM and 24.6 µM, respectively.

With `O=C1C=C(C2=C(C3=CC(=O)c4ccccc4C3=O)C(=O)c3ccccc3C2=O)C(=O)c2ccccc21`, the TGI in the assay on UACC-257 melanoma amounted to 25.4 µM; in the assay on MDA-N, 5.65 µM; in the assay with U251 CNS, 18.1 µM; with NCI/ADR-RES ovarian, 36.4 µM; with HS 578T breast, 40 µM; in the assay on HL-60(TB) leukemia, 3.68 µM. Also, the TGI in the assay on TK-10 renal came out at 21.8 µM; with RPMI-8226 leukemia, 12.2 µM; in the assay on IGROV1 ovarian, 8.1 µM; in the assay with MOLT-4 leukemia, 2.27 µM; in the assay on MDA-MB-435, 6.28 µM; with LOX IMVI melanoma, 14.6 µM. Besides, the TGI in the assay on OVCAR-4 ovarian is 17 µM; with SK-MEL-5 melanoma, 23.9 µM; in the assay with SNB-19 CNS, 37.7 µM; with A549 NSCLC, 27 µM; in the assay on A498 renal, 36.8 µM; with NCI-H460 lung it was 39.6 µM. Besides, the TGI was determined as 4.82 µM in the assay on MALME-3M melanoma and 21.7 µM in the assay with SF-539 CNS.

Consider `O=c1cc(CNC2CC3CCC2C3)[nH]c(=O)[nH]1` (stereo not given), for which the TGI in the assay on UACC-257 melanoma, with MDA-N, in the assay on U251 CNS, with NCI/ADR-RES ovarian, in the assay on HS 578T breast and in the assay on HL-60(TB) leukemia was > 100 µM in each case. Also, the TGI in the assay with TK-10 renal, in the assay with RPMI-8226 leukemia, in the assay on IGROV1 ovarian, in the assay on MOLT-4 leukemia, in the assay with MDA-MB-435 and in the assay on LOX IMVI melanoma was > 100 µM throughout. Besides, the TGI with OVCAR-4 ovarian, with SK-MEL-5 melanoma, in the assay with SNB-19 CNS, in the assay on A549 NSCLC, in the assay on A498 renal and in the assay with NCI-H460 lung was > 100 µM in each case. The TGI with MALME-3M melanoma and in the assay with SF-539 CNS was > 100 µM throughout.

For the compound `CCOP(=O)(OCC)C(Cc1ccc(Cl)cc1)NS(=O)(=O)c1ccc(C)cc1` (stereo not given), the TGI in the assay with UACC-257 melanoma, with MDA-N, with U251 CNS, with NCI/ADR-RES ovarian, in the assay with HS 578T breast and in the assay on HL-60(TB) leukemia was > 100 µM each time. The TGI in the assay with TK-10 renal, in the assay on RPMI-8226 leukemia, in the assay on IGROV1 ovarian, in the assay with MOLT-4 leukemia, in the assay on MDA-MB-435 and in the assay on LOX IMVI melanoma was > 100 µM each time. Moreover, the TGI in the assay with OVCAR-4 ovarian, in the assay with SK-MEL-5 melanoma, in the assay on SNB-19 CNS, with A549 NSCLC, with A498 renal and with NCI-H460 lung was > 100 µM in each case. Moreover, the TGI in the assay with MALME-3M melanoma and in the assay on SF-539 CNS was > 100 µM each time.

Turning to `CC(=O)NCCCCN(CCCNC(C)=O)C(=O)OCc1ccccc1`, the TGI in the assay on UACC-257 melanoma, in the assay on MDA-N, in the assay on U251 CNS, in the assay with NCI/ADR-RES ovarian, with HS 578T breast and with HL-60(TB) leukemia was > 100 µM each time. Moreover, the TGI in the assay with TK-10 renal, in the assay on RPMI-8226 leukemia, in the assay on IGROV1 ovarian, with MOLT-4 leukemia, in the assay with MDA-MB-435 and in the assay on LOX IMVI melanoma was > 100 µM throughout. In addition, the TGI in the assay on OVCAR-4 ovarian, in the assay with SK-MEL-5 melanoma, with A549 NSCLC, with A498 renal, with NCI-H460 lung and in the assay on MALME-3M melanoma was > 100 µM throughout. Moreover, in the assay with SF-539 CNS, the TGI is > 100 µM.

In the case of `C=CCNC(=O)CN(CC(=O)O)C1CCCCC1N(CC(=O)O)CC(=O)O` (stereo not given), the TGI with UACC-257 melanoma, with MDA-N, in the assay with U251 CNS, in the assay on NCI/ADR-RES ovarian, with HS 578T breast and in the assay with HL-60(TB) leukemia was > 100 µM throughout. In addition, the TGI with TK-10 renal, in the assay on RPMI-8226 leukemia, in the assay on IGROV1 ovarian, in the assay with MOLT-4 leukemia, in the assay on MDA-MB-435 and with LOX IMVI melanoma was > 100 µM each time. Moreover, the TGI with OVCAR-4 ovarian, in the assay with SK-MEL-5 melanoma, in the assay with SNB-19 CNS, in the assay on A549 NSCLC, in the assay on A498 renal and in the assay with NCI-H460 lung was > 100 µM each time. In addition, the TGI in the assay with MALME-3M melanoma and in the assay with SF-539 CNS was > 100 µM in each case.

With `Cc1ccc(S(=O)(=O)N2CCN(S(=O)(=O)c3ccc(C)cc3)CCN(S(=O)(=O)c3ccc(C)cc3)Cc3cc(Br)c(Br)cc3CN(S(=O)(=O)c3ccc(C)cc3)CC2)cc1`, the TGI with UACC-257 melanoma, with MDA-N, with U251 CNS, in the assay with NCI/ADR-RES ovarian, in the assay on HS 578T breast and in the assay with HL-60(TB) leukemia was > 100 µM throughout. For the same compound, the TGI in the assay on TK-10 renal, in the assay with RPMI-8226 leukemia, with IGROV1 ovarian, in the assay on MOLT-4 leukemia, in the assay on MDA-MB-435 and in the assay on LOX IMVI melanoma was > 100 µM each time. In addition, the TGI in the assay on OVCAR-4 ovarian, in the assay with SK-MEL-5 melanoma, with SNB-19 CNS, with A549 NSCLC, in the assay on A498 renal and in the assay on NCI-H460 lung was > 100 µM throughout. For the same compound, the TGI with MALME-3M melanoma and with SF-539 CNS was > 100 µM throughout.

For `NC(=O)c1sc2nc3ccccc3n2c1N`, the TGI is > 100 µM in the assay with UACC-257 melanoma; > 100 µM in the assay with MDA-N; 87.4 µM in the assay with U251 CNS; > 100 µM in the assay on NCI/ADR-RES ovarian; > 100 µM in the assay with HS 578T breast; > 100 µM with HL-60(TB) leukemia. The TGI with TK-10 renal, in the assay on RPMI-8226 leukemia, in the assay with IGROV1 ovarian, in the assay on MOLT-4 leukemia, in the assay on MDA-MB-435 and in the assay with LOX IMVI melanoma was > 100 µM each time. Moreover, the TGI in the assay with OVCAR-4 ovarian, in the assay on SK-MEL-5 melanoma, with SNB-19 CNS, in the assay on A549 NSCLC, in the assay on A498 renal and with MALME-3M melanoma was > 100 µM throughout. In the assay on SF-539 CNS, the TGI amounted to 45.9 µM.

Take `c1n[nH]cc1C12C3C4C5C3C1C5C42` (stereo not given): the TGI with UACC-257 melanoma, in the assay on MDA-N, in the assay on U251 CNS, in the assay with NCI/ADR-RES ovarian, in the assay with HS 578T breast and in the assay with HL-60(TB) leukemia was > 100 µM in each case. The TGI in the assay with TK-10 renal, in the assay on RPMI-8226 leukemia, in the assay on IGROV1 ovarian, with MOLT-4 leukemia, with MDA-MB-435 and in the assay with LOX IMVI melanoma was > 100 µM each time. For the same compound, the TGI with OVCAR-4 ovarian, with SK-MEL-5 melanoma, in the assay on SNB-19 CNS, in the assay with A549 NSCLC, with A498 renal and in the assay with MALME-3M melanoma was > 100 µM each time. Also, the TGI in the assay with SF-539 CNS is > 100 µM.

For the compound `O=[N+]([O-])/C=C/c1cn(CCCCCCCCCCCCn2cc(/C=C/[N+](=O)[O-])c3ccccc32)c2ccccc12`, the TGI in the assay with UACC-257 melanoma, in the assay on MDA-N, in the assay on U251 CNS, in the assay with NCI/ADR-RES ovarian, with HS 578T breast and in the assay with HL-60(TB) leukemia was > 100 µM in each case. In addition, the TGI in the assay with TK-10 renal, in the assay with RPMI-8226 leukemia, in the assay on IGROV1 ovarian, with MOLT-4 leukemia, in the assay on MDA-MB-435 and in the assay with LOX IMVI melanoma was > 100 µM in each case. Also, the TGI in the assay with OVCAR-4 ovarian, with SK-MEL-5 melanoma, in the assay on A549 NSCLC, with A498 renal, in the assay with NCI-H460 lung and with MALME-3M melanoma was > 100 µM throughout. Besides, the TGI in the assay on SF-539 CNS was > 100 µM.

`BrCc1ccc(CBr)c2c1-c1c(CBr)ccc3ccc(CBr)c-2c13`: the TGI in the assay with UACC-257 melanoma, with MDA-N, with U251 CNS, with NCI/ADR-RES ovarian, with HS 578T breast and in the assay on HL-60(TB) leukemia was > 100 µM throughout. Besides, the TGI with TK-10 renal, in the assay on RPMI-8226 leukemia, in the assay with IGROV1 ovarian, with MOLT-4 leukemia, in the assay on MDA-MB-435 and with LOX IMVI melanoma was > 100 µM throughout. Also, the TGI with OVCAR-4 ovarian, in the assay on SNB-19 CNS, in the assay on A549 NSCLC, in the assay on A498 renal, with NCI-H460 lung and with MALME-3M melanoma was > 100 µM throughout. The TGI in the assay with SF-539 CNS was > 100 µM.
